Measurements from ChEMBL document CHEMBL1671792, “Conformationally constrained farnesoid X receptor (FXR) agonists: heteroaryl replacements of the naphthalene” (Bioorg Med Chem Lett, 2011).
pEC50, pIC50: −log10 of the molar value. ≈ marks a conversion by molar mass, not a printed value. Calls of active or inactive are those of the source. The calls are words filed in the database; no cut-off is given here.

Assays:
Homo sapiens = species on record: Homo sapiens; assay: Selectivity ratio of EC50 for human FXR to EC50 for human PPARgamma
Mus musculus [1] = assay: Antidiabetic activity in diet-induced obese mouse assessed as NEFA level at 10 mg/kg, po for 4 weeks (reference value: 0.46 +/-0.02 mEq/dL); assay type: functional
Mus musculus [2] = assay: Antidiabetic activity in diet-induced obese mouse assessed as change in body weight at 10 mg/kg, po for 4 weeks measured after 3 weeks (reference value: 30.3+/-0.8 g); assay type: functional
Mus musculus [3] = assay: Antidiabetic activity in diet-induced obese mouse assessed as beta-hydroxybutyrate level at 100 mg/kg, po for 4 weeks (reference value: 1.7 +/-0.1 mg/dL); assay type: functional
Mus musculus [4] = assay: Antidiabetic activity in diet-induced obese mouse assessed as change in body weight at 10 mg/kg, po for 4 weeks measured after 4 weeks (reference value: 30.3+/-0.8 g); assay type: functional
[5] = Oral bioavailability in mouse; assay type: ADME, organism-based; settings: in vivo
Mus musculus [6] = assay: Antidiabetic activity in diet-induced obese mouse assessed as triglyceride level at 30 mg/kg, po for 4 weeks (reference value: 54.4 +/-1.5 mg/dL); assay type: functional
Mus musculus [7] = assay: Antidiabetic activity in diet-induced obese mouse assessed as glycerol level at 10 mg/kg, po for 4 weeks (reference value: 11.0 +/-1.3 mg/dL); assay type: functional
[8] = Half life in iv dosed Beagle dog; assay type: ADME, organism-based, Canis lupus familiaris; settings: in vivo
[9] = target: T1, Bile acid receptor (Homo sapiens) (UniProt Q96RI1); assay: Binding affinity to human FXR by X-ray crystallography
T1 sequence (whole entry): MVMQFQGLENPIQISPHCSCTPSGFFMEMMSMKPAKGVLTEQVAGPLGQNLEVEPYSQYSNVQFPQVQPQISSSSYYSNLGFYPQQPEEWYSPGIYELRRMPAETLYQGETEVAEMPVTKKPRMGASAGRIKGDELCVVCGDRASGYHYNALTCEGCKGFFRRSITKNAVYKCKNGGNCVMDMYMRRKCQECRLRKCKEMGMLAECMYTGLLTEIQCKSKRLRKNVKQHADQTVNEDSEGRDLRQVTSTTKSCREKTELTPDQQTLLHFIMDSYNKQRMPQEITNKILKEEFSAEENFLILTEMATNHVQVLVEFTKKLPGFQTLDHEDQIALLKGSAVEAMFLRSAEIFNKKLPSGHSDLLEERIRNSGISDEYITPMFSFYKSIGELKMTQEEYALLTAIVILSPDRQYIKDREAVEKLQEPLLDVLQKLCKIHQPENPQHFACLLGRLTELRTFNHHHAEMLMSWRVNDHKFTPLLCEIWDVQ

Mus musculus [10] = assay: Antidiabetic activity in diet-induced obese mouse assessed as serum insulin level at 10 mg/kg, po for 4 weeks (reference value: […]); assay type: functional
Mus musculus [11] = assay: Antidiabetic activity in diet-induced obese mouse assessed as glycerol level at 30 mg/kg, po for 4 weeks (reference value: 11.0 +/-1.3 mg/dL); assay type: functional
Cytochrome P450 1A2 = target: T2, Cytochrome P450 1A2 (Homo sapiens, UniProt P05177); assay: Inhibition of CYP1A2 in human liver microsome; assay type: microsomes
T2 sequence (P05177 whole entry): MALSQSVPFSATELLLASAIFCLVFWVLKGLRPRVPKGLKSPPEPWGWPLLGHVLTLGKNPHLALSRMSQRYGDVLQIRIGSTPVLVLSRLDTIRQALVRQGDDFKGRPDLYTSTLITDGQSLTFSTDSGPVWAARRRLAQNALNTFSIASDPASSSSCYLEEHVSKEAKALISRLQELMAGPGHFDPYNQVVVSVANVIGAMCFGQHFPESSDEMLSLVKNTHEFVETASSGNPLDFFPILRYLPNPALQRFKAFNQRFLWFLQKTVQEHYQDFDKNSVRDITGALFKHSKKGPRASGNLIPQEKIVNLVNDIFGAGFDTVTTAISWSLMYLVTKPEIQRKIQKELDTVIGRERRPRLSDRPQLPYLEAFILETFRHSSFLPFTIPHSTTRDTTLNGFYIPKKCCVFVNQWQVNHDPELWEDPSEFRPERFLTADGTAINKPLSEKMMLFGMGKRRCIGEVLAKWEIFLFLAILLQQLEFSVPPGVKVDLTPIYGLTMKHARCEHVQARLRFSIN

[12] = Half life in iv dosed cynomolgus monkey; assay type: ADME, organism-based, Macaca fascicularis; settings: in vivo
Bile acid receptor [13] = target: T3, Bile acid receptor (Homo sapiens, UniProt Q96RI1); assay: Agonist activity at human FXR LBD assessed as SRC1 peptide recruitment by FRET assay; assay type: functional
T3 sequence (Q96RI1 whole entry): T1 sequence (whole entry)

Mus musculus [14] = assay: Antidiabetic activity in diet-induced obese mouse assessed as serum glucose level at 100 mg/kg, po for 4 weeks (reference value: 316.5 +/-13.2 mg/dL); assay type: functional
[15] = Volume of distribution at steady state in iv dosed cynomolgus monkey; assay type: ADME, organism-based, Macaca fascicularis; settings: in vivo, read-out: Vdss
[16] = target: T1, Bile acid receptor (Homo sapiens); assay: Agonist activity at human FXR LBD assessed as SRC1 peptide recruitment by FRET assay relative to GW 4064; assay type: functional
Mus musculus [17] = assay: Antidiabetic activity in diet-induced obese mouse assessed as total cholesterol level at 30 mg/kg, po for 4 weeks (reference value: 140.0 +/-2.8 mg/dL); assay type: functional
Bile acid receptor [18] = target: T3, Bile acid receptor; assay: Agonist activity at human FXR LBD iexpressed in monkey CV-1 cells assessed as transactivation of luciferase reporter gene expression; assay type: functional, cell-based
[19] = Solubility of compound in fasted state-simulated intestinal fluid at pH 6.5; assay type: physicochemical; settings: simulated gi fluid
[20] = Oral bioavailability in rat; assay type: ADME, organism-based; settings: in vivo
Mus musculus [21] = assay: Antidiabetic activity in diet-induced obese mouse assessed as change in body weight at 30 mg/kg, po for 4 weeks measured after 2 weeks (reference value: 29.6+/-0.9 g); assay type: functional
Mus musculus [22] = assay: Antidiabetic activity in diet-induced obese mouse assessed as serum insulin level at 30 mg/kg, po for 4 weeks (reference value: […]); assay type: functional
[23] = Volume of distribution at steady state in iv dosed Beagle dog; assay type: ADME, organism-based, Canis lupus familiaris; settings: in vivo, read-out: Vdss
Cynomolgus monkey = assay: Dose normalized AUC in orally dosed cynomolgus monkey; assay type: ADME, organism-based, Macaca fascicularis; settings: in vivo, po
Mus musculus [24] = assay: Antidiabetic activity in diet-induced obese mouse assessed as total cholesterol level at 100 mg/kg, po for 4 weeks (reference value: 140.0 +/-2.8 mg/dL); assay type: functional
Mus musculus [25] = assay: Antidiabetic activity in diet-induced obese mouse assessed as change in body weight at 10 mg/kg, po for 4 weeks measured after 1 week (reference value: 30.3+/-0.8 g); assay type: functional
[26] = Clearance in iv dosed mouse; assay type: ADME, organism-based; settings: in vivo

Ratio EC50 (Homo sapiens): 100 | bioavailability [5]: 42% | half-life [8]: 1.83 h | Activity [9]: Active | pIC50 (Cytochrome P450 1A2): 4.68 | half-life [12]: 2 h | pEC50 (Bile acid receptor [13]): 6.92 | Vd [15]: 0.15 L/kg | Activity [16]: 105% | pEC50 (Bile acid receptor [18]): 7.30 | solubility [19]: 1 ng/mL (≈ 1.87 nM) | bioavailability [20]: 23% | Vd [23]: 0.31 L/kg | AUC (Cynomolgus monkey): 850 ng·kg·h/mg/mL | clearance [26]: 1.38 L/h/kg
SMILES: CC(C)c1onc(-c2c(Cl)cccc2Cl)c1COc1ccc(-c2ccc3nc(C(=O)O)ccc3c2)cc1
Activity (Mus musculus [1]): 0.53 mEq/dL | Activity (Mus musculus [2]): 29 g | Activity (Mus musculus [3]): 3.3 mg/dL | Activity (Mus musculus [4]): 29 g | Activity (Mus musculus [6]): 51.1 mg/dL | Activity (Mus musculus [7]): 10.8 mg/dL | Activity (Mus musculus [10]): 0.63 ng/mL | Activity (Mus musculus [11]): 10 mg/dL | Activity (Mus musculus [14]): 241.4 mg/dL | Activity (Mus musculus [17]): 99.6 mg/dL | Activity (Mus musculus [21]): 27.8 g | Activity (Mus musculus [22]): 0.58 ng/mL | Activity (Mus musculus [24]): 87.9 mg/dL | Activity (Mus musculus [25]): 29.4 g
